{
  "source": "patent US20150253330A1",
  "about": "“PRE-SELECTION OF SUBJECTS FOR THERAPEUTIC TREATMENT WITH AN HSP90 INHIBITOR BASED ON HYPOXIC STATUS” (Synta Pharmaceuticals Corp., priority 2012, published 2015)",
  "key": {"[1]": {"system": "Chk1 and Chk2 phosphorylation", "experiment": "Western blot of Chk1 and Chk2 phosphorylation after bleomycin in Detroit 562 cells", "type": "cell-based", "details": "Detroit 562, 100 nM ganetespib 24 hours prior to bleomycin (5 μM)", "procedure": "Protein expression was measured at the indicated time points after bleomycin treatment.\nCell extracts from Detroit 562 head and neck cancer cells were treated with 100 nM of ganetespib 24 hours prior to receiving the DNA damaging agent bleomycin (5 μM). Protein expression was measured at the indicated time points after bleomycin treatment."}, "A549 NSCLC cells": {"system": "A549 NSCLC cells", "experiment": "Mouse xenograft tumor model, ganetespib and BEZ235 (Example 9)", "type": "in vivo, mice", "details": "ganetespib 50 mg/kg weekly i.v.; BEZ235 10 mg/kg 5 times a week p.o.; particularly at later time points; FIG. 8", "from_the_text": "Female immunodeficient CD-1 (nude) mice (Charles River Laboratories, Wilmington, Mass.) were maintained in a pathogen-free environment, and all in vivo procedures were approved by the Synta Pharmaceuticals Corp. Institutional Animal Care and Use Committee. A549 NSCLC cells (7.5×10^6) were subcutaneously implanted into the animals. Mice bearing established tumors (100-200 mm^3) were randomized into treatment groups of 8 and i.v. dosed via the tail vein with either vehicle, ganetespib formulated in 10/18 DRD (10% DMSO, 18% Cremophor RH 40, 3.6% dextrose, 68.4% water) or p.o. dosed with BEZ235 formulated in PEG300/NMP (90% PEG300, 10% N-Methylpyrrolidone). Animals were treated with ganetespib at 50 mg/kg weekly or BEZ235 at 10 mg/kg 5 times a week, either alone or in combination. Tumor growth inhibition was determined as described previously. See Proia et al, PLoS One. 2011; 6(4):e18552."}, "H358 cells": {"system": "H358 cells", "experiment": "Combinatorial viability analysis, 72 hours", "type": "cell-based", "procedure": "(§1) For combinatorial analysis, cells were seeded in 96-well plates at a predetermined, optimum growth density for 24 h prior to the addition of drug or vehicle to the culture medium. Drug combinations were applied at a non-constant ratio over a range of concentrations for 72 or 96 hours. […] Cell viability was assessed by either AlamarBlue® (Invitrogen, Carlsbad, Calif.) or CellTiter-Glo® assays and normalized to vehicle controls. For each combination study, the level of growth inhibition (fraction affected) is plotted relative to vehicle control. Data are presented as one relevant combination point and the corresponding single agent data for each cell line tested."}, "H2009 cells": {"system": "H2009 cells", "experiment": "Combinatorial viability analysis, 72 hours", "type": "cell-based", "procedure": "as §1"}, "A549 cells": {"system": "A549 cells", "experiment": "Combinatorial viability analysis, 72 hours", "type": "cell-based", "procedure": "as §1"}, "H2030 cells": {"system": "H2030 cells", "experiment": "Combinatorial viability analysis, 72 hours", "type": "cell-based", "procedure": "as §1"}, "[2]": {"system": "HPAC and ASPC-1 xenograft", "experiment": "In vivo tumor growth delay and angiogenic assay, pancreatic xenografts", "design": "species or system SCID mice", "details": "100 mg/kg IV once a week for three weeks", "procedure": "It's postulated that functional inhibition of Hsp90 by ganetespib can inhibit angiogenesis and growth in vitro and in vivo models of pancreatic cancer. PANC-1 and HPAC cell lines were treated with vehicle or G (50 nM) for 24 h and lysates were analyzed by Western blot. Egg CAM and matrigel plug assays were performed to quantify the effects of ganetespib on angiogenesis. Efficacy of ganetespib (100 mg/kg) was assessed in mice bearing HPAC and ASPC-1 xenograft.\nIn vivo tumor growth delay and angiogenic assay: Five-week-old SCID mice were divided into 4 groups with 10 animals in each group. First two groups received 100 μl of Ice cold matrigel medium containing ASPC-1 (1×10^6 cells/100 μl) and other two groups received HPAC cell lines subcutaneously. Once the tumor reached 100-120 mm^3, the groups 2 and 4 received ganetespib (100 mg/kg body weight) IV once a week for three weeks. […] Every other day, tumor was measured using vernier caliper scale for a total of five weeks, when the animals were sacrificed. Skin around the implanted matrigel tumor was removed carefully and the tumor with its surrounding was photographed under visible light."}, "[3]": {"system": "Mia-PaCa2, HPAC and PANC-1 cells", "experiment": "Proliferation of pancreatic cancer cell lines, 24 hours (confirmed by XTT assay)", "type": "cell-based", "details": "p<0.001, one way ANOVA", "procedure": "Mia-PaCa2, PANC-1, HPAC and ASPC-1 cell lines (ATCC, Manassas, Va.) were cultured according to the ATCC manual. Medium was supplemented with 10% fetal bovine serum (Invitrogen Corporation, Carlsbad, Calif.), 50 units/ml penicillin, and 50 μg/ml streptomycin (Life Technologies, Inc., Frederick, Md.). Cells were incubated at 37° C. in a humidified 5% CO2 atmosphere."}, "MDA-MB-231": {"system": "MDA-MB-231", "experiment": "72 hr viability by CTG, breast cancer cell line", "type": "cell-based", "procedure": "Breast cancer is a heterogeneous disease historically broken down into 4 subtypes. Various compounds were tested for their effects in cell viability assays using various breast cancer cell lines. Cellular viability was assessed using the CellTiter-Glo® Luminescent Cell Viability Assay (Promega, Madison, Wis., USA) according to the manufacturer's protocol. KRAS mutant NSCLC cell lines were seeded into 96-well plates based on optimal growth rates determined empirically for each line. Twenty-four hours after plating, cells were dosed with graded concentrations of ganetespib for 72 h. CellTiter-Glo® was added (50% v/v) to the cells, and the plates incubated for 10 min prior to luminescent detection in a SpectraMax® Plus 384 microplate reader (Molecular Devices, Sunnyvale, Calif., USA). Data were normalized to percent of control and IC50 values used to determine the sensitivity of each line. For the comparative analysis study with MEK and PI3K/mTOR inhibitors, A549, H2009, Calu-1, and H358 cells were treated with graded concentrations of ganetespib, AZD6244, or BEZ235 for 72 h and cell viability measured as above.\nBreast cancer, cell lines, marker status, and IC50 in response to ganetespib at 72 hr (viability by CTG).\nBasal breast cancer is a subtype believed to be more stem like and less differentiated than luminal breast cancer, and therefore more aggressive with limited treatment options. […]"}, "[4]": {"system": "SUM149 inflammatory breast cancer (IBC) cells", "experiment": "24 hr viability assay, inflammatory breast cancer cells", "type": "cell-based", "details": "24 hr after exposure, FIG. 2", "procedure": "Ganetespib was assayed in inflammatory breast cancer (IBC), a rare but aggressive form of breast cancer distinct from the subtypes presented above."}, "[5]": {"details": "ganetespib combined with pemetrexed"}, "[6]": {"details": "ganetespib in combination with gemcitabine"}, "[7]": {"details": "low nanomolar ganetespib combined with camptothecin"}, "[8]": {"details": "human pancreatic tumor xenografts"}},
  "note": "“Also recorded” adds a separate entry of the source.",
  "data": [
    {"compound": "CC(C)c1cc(-c2nnc(O)n2-c2ccc3c(ccn3C)c2)c(O)cc1O", "note": "[ganetespib]", "values": [
      {"measurement": "Bleomycin-induced Chk1 and Chk2 phosphorylation", "setting": "[1]", "value": "blocked"},
      {"measurement": "Average tumor volume as compared to vehicle", "setting": "A549 NSCLC cells", "value": "significantly reduced"},
      {"measurement": "Increase in cytotoxicity", "setting": "H358 cells; [5]", "value": "marginal increase in cytotoxicity"},
      {"measurement": "Benefit of combination", "setting": "H358 cells; [6]", "value": "no benefit"},
      {"measurement": "Fold increase in cytotoxicity", "setting": "H358 cells; [7]", "value": 1.4, "unit": "fold"},
      {"measurement": "Enhanced cell death", "setting": "H2009 cells; [5]", "value": 1.5, "unit": "fold"},
      {"measurement": "Increased cell death", "setting": "H2009 cells; [6]", "value": 2.3, "unit": "fold"},
      {"measurement": "Fold increase in cytotoxicity", "setting": "H2009 cells; [7]", "value": 1.5, "unit": "fold"},
      {"measurement": "Increase in cytotoxicity", "setting": "A549 cells; [5]", "value": "marginal increase in cytotoxicity"},
      {"measurement": "Increased cell death", "setting": "A549 cells; [6]", "value": 1.4, "unit": "fold"},
      {"measurement": "Enhanced cell death", "setting": "H2030 cells; [5]", "value": 2.4, "unit": "fold"},
      {"measurement": "Fold increase in cytotoxicity", "setting": "H2030 cells; [7]", "value": 3.4, "unit": "fold"},
      {"measurement": "Angiogenesis in vivo", "setting": "[2]; [8]", "value": "inhibition of angiogenesis in vivo; also recorded: decreases angiogenesis"},
      {"measurement": "Tumor growth", "setting": "[2]; [8]", "value": "significant tumor growth delay; also recorded: significantly inhibits tumor growth"},
      {"measurement": "Deaths from the treatment", "setting": "[2]; SCID mice", "value": "None of the animals died"},
      {"measurement": "Proliferation of Mia-PaCa2, HPAC and PANC-1 cells", "setting": "[3]", "value": "decreases proliferation"},
      {"measurement": "Anticancer activity in the basal line MDA-MB-231", "setting": "MDA-MB-231; 72 hr viability assay, FIG. 1", "value": "highly potent, killing all the cells"},
      {"measurement": "IC50", "setting": "MDA-MB-231; Homo sapiens, MDA-MB-231, Basal B, 72 hr, viability by CTG", "value": 24, "unit": "nM"},
      {"measurement": "Anticancer activity against SUM149 cells", "setting": "[4]", "value": "considerable anticancer activity"}
    ]}
  ]
}
